Experimental data from patent US11629171B2, “Beta-hairpin peptidomimetics” (POLYPHOR AG, priority 2017, dated 2023).
Values after ≈ are worked out from the molar mass of the structure shown. Where a SMILES comes first, the peptide text is derived from it. Bridges are numbered along the chain shown (N, C = ends). Roman numbers before positions name the chains, in order. [ ]: non-standard residue; d: D form. The star is where a group is joined. Thr(ol) = C[C@@H](O)[C@H](N)CO; Tle = CC(C)(C)[C@H](N)C(=O)O; Hiv = CC(C)[C@H](O)C(=O)O; dDab = NCC[C@@H](N)C(=O)O; hSer = N[C@@H](CCO)C(=O)O; NHCH(CH2OH)2 = OCC(CO)N*; Orn = NCCC[C@H](N)C(=O)O; Dab = NCC[C@H](N)C(=O)O; Dap = NC[C@H](N)C(=O)O

Assays:
Format in all cases: cell-based
[1] = tested on: Acinetobacter baumannii 872842; conditions: 872842
Description: (§1) The in vitro antimicrobial activities of the peptides were determined in 96-well plates (Greiner, polystyrene) by the standard CLSI broth microdilution method (Clinical and Laboratory Standards Institute 2014. Performance standards for antimicrobial susceptibility testing, 24th informational supplement. Approved standard CLSI M100-S24; Clinical and Laboratory Standards Institute, Wayne, Pa.). The following microorganisms were used to determine antibiotic activity of the peptides: Escherichia coli ATCC 25922, Klebsiella pneumoniae SSI #3010^a), Acinetobacter baumannii DSM 30008, Pseudomonas aeruginosa ATCC 27853 and the clinical isolates Escherichia coli 926415^b), Klebsiella pneumoniae 968733^b), Acinetobacter baumannii 872842^b), Enterobacter cloacae 848840^b) and Escherichia coli MCR-1 Af45^c). Before preparation of inocula, Escherichia coli MCR-1 Af45 was subcultured on Mueller-Hinton II (MH-cation adjusted) agar containing 2 μg/mL colistin. ^a) Obtained from Statens Serum Institut (SSI), Copenhagen, Denmark^b) Obtained from International Health Management Associates, Inc. (IHMA Europe Sàrl), Epalinges, Switzerland^c) Obtained from Prof. Patrice Nordmann, University of Fribourg, Fribourg, Switzerland
(§2) Inocula of the microorganisms were diluted into Mueller-Hinton II (MH-cation adjusted) broth and compared with a 0.5 McFarland standard to give appr. 10^6 colony forming units (CFU)/mL. Aliquots (90 μL) of inoculum were added to 10 μL of MH-II broth+P-80 (Polysorbate 80, 0.002% final concentration, v/v) containing the peptide in serial two-fold dilutions. Antimicrobial activities of the peptides were expressed as the minimal inhibitory concentration (MIC) in μg/mL at which no visible growth was observed after 18-20 hours of incubation at 35° C.

[2] = tested on: Acinetobacter baumannii DSM 30008; conditions: DSM 30008
Description: as §1, §2

Escherichia coli 926415 = conditions: 926415
Description: as §1, §2

[3] = tested on: Escherichia coli ATCC 25922; conditions: ATCC 25922
Description: as §1, §2

[4] = tested on: Klebsiella pneumoniae 968733; conditions: 968733
Description: as §1, §2

[5] = tested on: Klebsiella pneumoniae SSI #3010; conditions: SSI #3010
Description: as §1, §2

[6] = tested on: Pseudomonas aeruginosa ATCC 27853; conditions: ATCC 27853
Description: as §1, §2

[7] = tested on: human red blood cells (hRBC); test: Hemolysis; conditions: red cells of human, 1 h, 200
Description: The peptides were tested for their hemolytic activity against human red blood cells (hRBC). Fresh hRBC were washed four times with phosphate buffered saline (PBS) and centrifuged for 10 min at 3000×g. Compounds (200 μg/mL) were incubated with 20% hRBC (v/v) for 1 h at 37° C. and shaking at 300 rpm. A value of 0% and 100% cell lysis, respectively, was determined by incubation of hRBC in the presence of PBS containing 10% water and 2% Triton X-100 in H2O, respectively. The samples were centrifuged, the supernatants were ˜7.5-fold diluted in PBS buffer and the optical densities (OD) were measured at 540 nm and blank corrected. The 100% lysis value (OD540Triton X-100) gave an OD540 of approximately 0.5-1.0.
Percent hemolysis was calculated as follows: (OD540peptide/OD540Triton X-100)×100%.

SMILES	MIC [1]	MIC [2]	MIC (Escherichia coli 926415)	MIC [3]	MIC [4]	MIC [5]	MIC [6]	Hemolysis at 200 μg/mL [7]
CC(C)C[C@@H]1NC(=O)[C@@H](CC(C)C)NC(=O)[C@H](CCN)NC(=O)[C@@H](NC(=O)[C@H](CN)NC(=O)[C@@H](NC(=O)[C@H](CCN)NC(=O)CC[C@@H]2NC(=O)[C@H](CCCN)NC(=O)[C@@H](NC(=O)[C@H](Cc3ccc(O)cc3)NC(=O)[C@@H](NC(=O)[C@@H](O)C(C)C)[C@@H](C)O)CSSC[C@@H](C(=O)N[C@H](C(=O)N[C@@H](C)C(=O)N[C@H](CO)[C@@H](C)O)C(C)(C)C)NC(=O)[C@H](Cc3c[nH]c4ccccc34)NC(=O)[C@H]([C@@H](C)O)NC2=O)[C@@H](C)O)CCNC(=O)[C@H]([C@@H](C)O)NC(=O)[C@H](CCN)NC(=O)[C@H](CCN)NC1=O [Ex. 209] (I: H-[Hiv]TYC[Orn]ETWC[Tle]A[Thr(ol)] / II: [Dab]T[Dap][Dab][Dab][dL]L[Dab][Dab]T; disulfide I:4-I:9; amide I:6-II:N; lactam II:4-II:C)	2 µg/mL (≈ 0.838 µM)	0.25 µg/mL (≈ 0.105 µM)	1 µg/mL (≈ 0.419 µM)	0.125 µg/mL (≈ 0.0524 µM)	4 µg/mL (≈ 1.68 µM)	0.25 µg/mL (≈ 0.105 µM)	0.5 µg/mL (≈ 0.21 µM)	<1%
CC(=O)N[C@H](C(=O)N[C@H](C(=O)N[C@@H](Cc1ccc(O)cc1)C(=O)N[C@@H](CCN)C(=O)N[C@@H](CCC(=O)N[C@@H](CCN)C(=O)N[C@H](C(=O)N[C@@H](CN)C(=O)N[C@H]1CCNC(=O)[C@H]([C@@H](C)O)NC(=O)[C@H](CCN)NC(=O)[C@H](CCN)NC(=O)[C@H](CC(C)C)NC(=O)[C@@H](CC(C)C)NC(=O)[C@H](CCN)NC1=O)[C@@H](C)O)C(=O)N[C@H](CCN)C(=O)N[C@H](C(=O)N[C@@H](Cc1c[nH]c2ccccc12)C(=O)N[C@@H](CCC(=O)O)C(=O)N[C@H](C(=O)N[C@@H](C)C(=O)N[C@@H](CO)C(N)=O)C(C)(C)C)[C@@H](C)O)[C@@H](C)O)C(C)C [Ex. 230] (I: Ac-VTY[Dab]E[dDab]TWE[Tle]AS-NH2 / II: [Dab]T[Dap][Dab][Dab][dL]L[Dab][Dab]T; amide I:5-II:N; lactam II:4-II:C)		1 µg/mL (≈ 0.41 µM)		0.25 µg/mL (≈ 0.103 µM)		0.5 µg/mL (≈ 0.205 µM)	1 µg/mL (≈ 0.41 µM)	<1%
CC(=O)N[C@@H](CCN)C(=O)N[C@H](C(=O)N[C@@H](CN)C(=O)N[C@@H](Cc1ccc(O)cc1)C(=O)N[C@H]1CSSC[C@@H](C(=O)N[C@H](C(N)=O)C(C)(C)C)NC(=O)[C@H](Cc2c[nH]c3ccccc23)NC(=O)[C@H](CO)NC(=O)[C@@H](CCN)NC(=O)[C@H](CCC(=O)N[C@@H](CCN)C(=O)N[C@H](C(=O)N[C@@H](CN)C(=O)N[C@H]2CCNC(=O)[C@H]([C@@H](C)O)NC(=O)[C@H](CCN)NC(=O)[C@H](CCN)NC(=O)[C@H](CC(C)C)NC(=O)[C@@H](CC(C)C)NC(=O)[C@H](CCN)NC2=O)[C@@H](C)O)NC1=O)C(C)C [Ex. 13] (I: Ac-[Dab]V[Dap]YCE[dDab]SWC[Tle]-NH2 / II: [Dab]T[Dap][Dab][Dab][dL]L[Dab][Dab]T; disulfide I:5-I:10; amide I:6-II:N; lactam II:4-II:C)		0.125 µg/mL (≈ 0.0538 µM)		0.125 µg/mL (≈ 0.0538 µM)		0.125 µg/mL (≈ 0.0538 µM)	0.125 µg/mL (≈ 0.0538 µM)	<1%

Continued, in another order:

MIC [1]	MIC [2]	MIC (Escherichia coli 926415)	MIC [3]	MIC [4]	MIC [5]	MIC [6]	SMILES	Hemolysis at 200 μg/mL [7]
2 µg/mL (≈ 0.843 µM)	0.25 µg/mL (≈ 0.105 µM)	2 µg/mL (≈ 0.843 µM)	0.25 µg/mL (≈ 0.105 µM)	8 µg/mL (≈ 3.37 µM)	0.125 µg/mL (≈ 0.0527 µM)	0.25 µg/mL (≈ 0.105 µM)	CC(C)C[C@@H]1NC(=O)[C@@H](CC(C)C)NC(=O)[C@H](CCN)NC(=O)[C@@H](NC(=O)[C@H](CCN)NC(=O)[C@@H](NC(=O)[C@H](CCN)NC(=O)CC[C@@H]2NC(=O)[C@H](CCN)NC(=O)[C@H](C(C)C)NC(=O)[C@@H](NC(=O)[C@@H](O)C(C)C)CSSC[C@@H](C(=O)NC(CO)CO)NC(=O)[C@H](Cc3ccc(O)cc3)NC(=O)[C@H](CO)NC(=O)[C@H](Cc3c[nH]c4ccccc34)NC(=O)[C@H](CCO)NC(=O)[C@@H](CCN)NC2=O)[C@@H](C)O)CCNC(=O)[C@H]([C@@H](C)O)NC(=O)[C@H](CCN)NC(=O)[C@H](CCN)NC1=O [Ex. 97] (I: H-[Hiv]CV[Dab]E[dDab][hSer]WSYC-{NHCH(CH2OH)2} / II: [Dab]T[Dab][Dab][Dab][dL]L[Dab][Dab]T; disulfide I:2-I:11; amide I:5-II:N; lactam II:4-II:C)	<1%
2 µg/mL (≈ 0.844 µM)	0.25 µg/mL (≈ 0.105 µM)	0.5 µg/mL (≈ 0.211 µM)	0.125 µg/mL (≈ 0.0527 µM)	2 µg/mL (≈ 0.844 µM)	0.5 µg/mL (≈ 0.211 µM)	0.5 µg/mL (≈ 0.211 µM)	CC(C)C[C@@H]1NC(=O)[C@@H](CC(C)C)NC(=O)[C@H](CCN)NC(=O)[C@@H](NC(=O)[C@H](CN)NC(=O)[C@@H](NC(=O)[C@H](CCN)NC(=O)CC[C@H]2NC(=O)CNC(=O)[C@H](CCCN)NC(=O)[C@H](CCN)NC(=O)[C@H](Cc3ccc(O)cc3)NC(=O)[C@@H](NC(=O)[C@@H](O)C(C)C)CSSC[C@@H](C(=O)N[C@H](C(N)=O)[C@@H](C)O)NC(=O)[C@H](C(C)(C)C)NC(=O)[C@H](CO)NC(=O)[C@H](Cc3c[nH]c4ccccc34)NC2=O)[C@@H](C)O)CCNC(=O)[C@H]([C@@H](C)O)NC(=O)[C@H](CCN)NC(=O)[C@H](CCN)NC1=O [Ex. 170] (I: H-[Hiv]CY[Dab][Orn]G[dE]WS[Tle]CT-NH2 / II: [Dab]T[Dap][Dab][Dab][dL]L[Dab][Dab]T; disulfide I:2-I:11; amide I:7-II:N; lactam II:4-II:C)	<1%
2 µg/mL (≈ 0.893 µM)	0.5 µg/mL (≈ 0.223 µM)	0.25 µg/mL (≈ 0.112 µM)	0.5 µg/mL (≈ 0.223 µM)	1 µg/mL (≈ 0.447 µM)	0.5 µg/mL (≈ 0.223 µM)	1 µg/mL (≈ 0.447 µM)	CC(C)C[C@@H]1NC(=O)[C@H](CCN)NC(=O)[C@H](CCN)NC(=O)[C@H](CC(C)C)NC(=O)[C@@H](CC(C)C)NC(=O)[C@H](CCN)NC(=O)[C@@H](NC(=O)[C@@H](CCN)NC(=O)CC[C@@H]2NC(=O)[C@H](CCCN)NC(=O)[C@H](CCN)NC(=O)[C@H](Cc3ccc(O)cc3)NC(=O)[C@@H](NC(=O)[C@@H](O)C(C)C)CSSC[C@@H](C(=O)N[C@H](C(N)=O)[C@@H](C)O)NC(=O)[C@H](C(C)(C)C)NC(=O)[C@H](CO)NC(=O)[C@H](Cc3c[nH]c4ccccc34)NC(=O)[C@H]([C@@H](C)O)NC2=O)CCNC1=O [Ex. 164] (I: H-[Hiv]CY[Dab][Orn]ETWS[Tle]CT-NH2 / II: [dDab][Dab][Dab][dL]L[Dab][Dab]L; disulfide I:2-I:11; amide I:6-II:N; lactam II:2-II:C)	<1%
	0.125 µg/mL (≈ 0.0532 µM)		0.0625 µg/mL (≈ 0.0266 µM)		0.125 µg/mL (≈ 0.0532 µM)	0.25 µg/mL (≈ 0.106 µM)	CC(=O)N[C@H](C(=O)N[C@H]1CCCNC(=O)[C@@H](CCCCN)NC(=O)[C@H](C(C)(C)C)NC(=O)[C@H](CO)NC(=O)[C@H](Cc2c[nH]c3ccccc23)NC(=O)[C@H](CCO)NC(=O)[C@@H](CCN)NC(=O)[C@H](CCC(=O)N[C@@H](CCN)C(=O)N[C@H](C(=O)N[C@@H](CN)C(=O)N[C@H]2CCNC(=O)[C@H]([C@@H](C)O)NC(=O)[C@H](CCN)NC(=O)[C@H](CCN)NC(=O)[C@H](CC(C)C)NC(=O)[C@@H](CC(C)C)NC(=O)[C@H](CCN)NC2=O)[C@@H](C)O)NC(=O)[C@H](CO)NC(=O)[C@H](Cc2ccc(O)cc2)NC1=O)C(C)C [Ex. 30] (I: Ac-V[Orn]YSE[dDab][hSer]WS[Tle][dK] / II: [Dab]T[Dap][Dab][Dab][dL]L[Dab][Dab]T; lactam I:2-I:C, II:4-II:C; amide I:5-II:N)	<1%
